Measured values: the CheMixHub drug solubility set

Assay: xn = mol fraction of the nth substance listed, in the solute-free solvent

CC(C)=CCCC(C)C1CCC2(C)C3=C(CCC12C)C1(C)CCC(O)C(C)(C)C1CC3 (centres undefined) + CO + O
solubility (g/100 g solution)
Conditions | 296.67 K | 306.81 K | 316.94 K | 328.97 K | 338.78 K
x2 = 0.0229 | 8.14e-06 | 1.37e-05 | 3.09e-05 | 6.98e-05 | 0.000153
x2 = 0.09675 | 8.15e-06 | 1.39e-05 | 3.32e-05 | 8.15e-05 | 0.000161
x2 = 0.3065 | 7.26e-06 | 1.51e-05 | 3.94e-05 | 8.99e-05 | 0.000193
x2 = 0.5109 | 0.00011 | 0.000197 | 0.000378 | 0.000796 | 0.00195
x2 = 0.8048 | 0.0189 | 0.0422 | 0.0785 | 0.161 | –

Nc1cccc(S(=O)(=O)c2cccc(N)c2)c1 + CO + O
solubility (g/100 g solution)
Conditions | 283.15 K | 288.15 K | 293.15 K | 298.15 K | 303.15 K | 308.15 K | 313.15 K | 318.15 K | 323.15 K | 328.15 K
x2 = 0.05881 | 0.0853 | 0.113 | 0.149 | 0.202 | 0.26 | 0.333 | 0.429 | 0.552 | 0.675 | 0.867
x2 = 0.1233 | 0.182 | 0.244 | 0.31 | 0.4 | 0.526 | 0.654 | 0.83 | 1.04 | 1.28 | 1.59
x2 = 0.1942 | 0.315 | 0.413 | 0.533 | 0.675 | 0.849 | 1.08 | 1.34 | 1.67 | 2.05 | 2.48
x2 = 0.2727 | 0.512 | 0.66 | 0.84 | 1.04 | 1.32 | 1.63 | 2 | 2.41 | 2.93 | 3.56
x2 = 0.3599 | 0.734 | 0.92 | 1.16 | 1.44 | 1.77 | 2.18 | 2.64 | 3.19 | 3.81 | 4.63
x2 = 0.4576 | 0.977 | 1.22 | 1.53 | 1.89 | 2.32 | 2.81 | 3.41 | 4.06 | 4.85 | 5.78
x2 = 0.5675 | 1.28 | 1.57 | 1.95 | 2.42 | 2.93 | 3.58 | 4.23 | 5.08 | 5.95 | 7.08
x2 = 0.6923 | 1.59 | 1.95 | 2.37 | 2.95 | 3.56 | 4.28 | 5.14 | 6.1 | 7.13 | 8.38
x2 = 0.835 | 1.93 | 2.32 | 2.83 | 3.42 | 4.15 | 4.97 | 5.91 | 6.97 | 8.2 | 9.54

OCCN(CCO)c1nc(N2CCCCC2)c2nc(N(CCO)CCO)nc(N3CCCCC3)c2n1 + CO + O
solubility (g/100 g solution)
Conditions | 293.15 K | 298.15 K | 303.15 K | 308.15 K | 313.15 K | 318.15 K | 323.15 K | 328.15 K
x2 = 0.3 | 0.0465 | 0.0712 | 0.121 | 0.178 | 0.281 | 0.39 | 0.543 | 0.757
x2 = 0.4 | 0.197 | 0.312 | 0.48 | 0.676 | 1.01 | 1.48 | 2.27 | 3.26
x2 = 0.5 | 0.513 | 0.826 | 1.16 | 1.64 | 2.54 | 3.82 | 6.13 | 9.01
x2 = 0.6 | 1.12 | 1.6 | 2.21 | 3.21 | 4.77 | 7.29 | 11.6 | 18
x2 = 0.7 | 1.8 | 2.43 | 3.45 | 5.11 | 7.41 | 11.5 | 17.4 | 26.3
x2 = 0.8 | 2.43 | 3.31 | 4.57 | 6.51 | 9.53 | 14.1 | 20.9 | 29.2
x2 = 0.9 | 2.81 | 3.85 | 5.46 | 7.53 | 10.9 | 15.8 | 22.7 | 31.9

Cl.N=C(N)N + COCCO + CCCO
solubility (g/100 g solution)
Conditions | 278.15 K | 283.15 K | 288.15 K | 293.15 K | 298.15 K | 303.15 K | 308.15 K | 313.15 K | 318.15 K | 323.15 K
x2 = 0.08075 | 10.4 | 11.1 | 12.4 | 13.1 | 14.6 | 15.7 | 16.7 | 17.6 | 19.2 | 20.2
x2 = 0.253 | 17.4 | 18.7 | 20.1 | 20.9 | 21.8 | 23.2 | 24.1 | 24.9 | 25.7 | 26.9
x2 = 0.4413 | 23.9 | 24.8 | 25.9 | 26.6 | 27.7 | 28.3 | 29.1 | 30 | 30.9 | 31.4
x2 = 0.6479 | 29.4 | 30.1 | 30.7 | 31.8 | 32.2 | 33.2 | 33.8 | 34.3 | 35 | 35.6
x2 = 0.8768 | 32.5 | 33.2 | 34.3 | 34.9 | 35.8 | 36.6 | 37.1 | 38.3 | 38.9 | 39.5

Nc1ccc(Oc2ccc(N)cc2)cc1 + COCCO + CCO
solubility (g/100 g solution)
Conditions | 293.15 K | 298.15 K | 303.15 K | 308.15 K | 313.15 K | 318.15 K | 323.15 K | 328.15 K | 333.15 K
x2 = 0.06303 | 0.499 | 0.623 | 0.747 | 0.912 | 1.12 | 1.28 | 1.53 | 1.85 | 2.05
x2 = 0.1315 | 0.717 | 0.756 | 1.15 | 1.31 | 1.47 | 1.66 | 2.05 | 2.13 | 2.67
x2 = 0.206 | 1.06 | 1.1 | 1.51 | 1.67 | 1.81 | 2.26 | 2.59 | 2.89 | 3.33
x2 = 0.2875 | 1.41 | 1.52 | 2.06 | 2.16 | 2.37 | 2.9 | 3.32 | 3.5 | 4.01
x2 = 0.3771 | 1.82 | 2.06 | 2.54 | 2.67 | 3.1 | 3.47 | 4.03 | 4.26 | 4.95
x2 = 0.4759 | 2.25 | 2.54 | 3.08 | 3.31 | 3.71 | 4.25 | 4.81 | 4.96 | 5.85
x2 = 0.5855 | 2.84 | 3.2 | 3.71 | 4.1 | 4.42 | 5.1 | 5.68 | 6.03 | 6.84
x2 = 0.7077 | 3.66 | 3.97 | 4.45 | 4.86 | 5.25 | 6.05 | 6.65 | 7.22 | 7.97
x2 = 0.8449 | 4.52 | 4.75 | 5.33 | 5.75 | 6.21 | 6.99 | 7.7 | 8.23 | 9.05

Nc1[nH]c(=O)ncc1F + CS(C)=O + CC(C)O
solubility (g/100 g solution)
Conditions | 283.15 K | 288.15 K | 293.15 K | 298.15 K | 303.15 K | 308.15 K | 313.15 K | 318.15 K | 323.15 K
x2 = 0.0788 | 0.0921 | 0.111 | 0.133 | 0.162 | 0.192 | 0.228 | 0.268 | 0.315 | 0.37
x2 = 0.1614 | 0.168 | 0.202 | 0.237 | 0.282 | 0.331 | 0.386 | 0.451 | 0.526 | 0.615
x2 = 0.2481 | 0.248 | 0.291 | 0.341 | 0.401 | 0.466 | 0.543 | 0.625 | 0.717 | 0.826
x2 = 0.3392 | 0.336 | 0.388 | 0.451 | 0.521 | 0.606 | 0.693 | 0.798 | 0.914 | 1.05
x2 = 0.435 | 0.424 | 0.487 | 0.569 | 0.648 | 0.743 | 0.852 | 0.967 | 1.1 | 1.25
x2 = 0.5359 | 0.503 | 0.57 | 0.645 | 0.734 | 0.837 | 0.957 | 1.09 | 1.24 | 1.41
x2 = 0.6424 | 0.591 | 0.662 | 0.745 | 0.833 | 0.948 | 1.08 | 1.21 | 1.38 | 1.55
x2 = 0.7549 | 0.704 | 0.789 | 0.876 | 0.987 | 1.11 | 1.25 | 1.41 | 1.59 | 1.77
x2 = 0.8739 | 0.823 | 0.901 | 1 | 1.11 | 1.24 | 1.4 | 1.57 | 1.75 | 1.95

Nc1ccc(Oc2ccc(N)cc2)cc1 + CS(C)=O + CCO
solubility (g/100 g solution)
Conditions | 293.15 K | 298.15 K | 303.15 K | 308.15 K | 313.15 K | 318.15 K | 323.15 K | 328.15 K | 333.15 K
x2 = 0.06154 | 0.705 | 0.952 | 1.2 | 1.28 | 1.56 | 1.81 | 2.13 | 2.45 | 2.97
x2 = 0.1286 | 1.54 | 1.73 | 2.16 | 2.39 | 2.54 | 3.27 | 3.57 | 4.14 | 4.81
x2 = 0.2019 | 2.84 | 3.16 | 3.74 | 4.14 | 4.64 | 5.35 | 5.87 | 6.46 | 7.63
x2 = 0.2824 | 5.08 | 5.51 | 6.34 | 6.77 | 7.36 | 8.3 | 9.1 | 10.2 | 11.8
x2 = 0.3711 | 8.32 | 8.84 | 9.8 | 10.4 | 11.4 | 12.3 | 13.3 | 14.7 | 16.3
x2 = 0.4696 | 12.3 | 13.1 | 14.1 | 15 | 16 | 17.2 | 18.2 | 19.7 | 21.4
x2 = 0.5793 | 17 | 18.3 | 19.1 | 20.1 | 21 | 22.4 | 23.4 | 24.9 | 26.6
x2 = 0.7024 | 22 | 23.1 | 24 | 24.9 | 25.9 | 26.9 | 28.1 | 29.7 | 31.3
x2 = 0.8416 | 26.8 | 27.7 | 28.6 | 29.6 | 30.2 | 31.6 | 32.7 | 34.1 | 35.7

CN1CCN(C2=Nc3cc(Cl)ccc3Nc3ccccc32)CC1 + CS(C)=O + O
solubility (g/100 g solution)
Conditions | 293.15 K | 298.15 K | 303.15 K | 308.15 K | 313.15 K | 318.15 K | 323.15 K | 328.15 K | 333.15 K
x2 = 0.02501 | 0.0367 | 0.0478 | 0.0615 | 0.0795 | 0.0996 | 0.126 | 0.159 | 0.2 | 0.249
x2 = 0.05457 | 0.375 | 0.473 | 0.591 | 0.724 | 0.873 | 1.06 | 1.28 | 1.54 | 1.84
x2 = 0.09003 | 1.33 | 1.64 | 1.96 | 2.36 | 2.78 | 3.26 | 3.88 | 4.56 | 5.3
x2 = 0.1334 | 3.26 | 3.82 | 4.52 | 5.18 | 6.01 | 6.93 | 8.01 | 9.03 | 10.2
x2 = 0.1876 | 5.71 | 6.6 | 7.64 | 8.74 | 9.88 | 11.3 | 12.7 | 14.2 | 15.7
x2 = 0.2572 | 9.16 | 10.5 | 12.1 | 13.6 | 15.4 | 17.2 | 19.1 | 21.3 | 23.4
x2 = 0.3501 | 12.9 | 14.6 | 16.6 | 18.6 | 20.7 | 23.1 | 25.5 | 27.9 | 30.5
x2 = 0.4801 | 16.2 | 18.2 | 20.4 | 22.7 | 25.2 | 27.9 | 30.6 | 33.4 | 36.3
x2 = 0.6751 | 18.4 | 20.7 | 23.2 | 25.8 | 28.6 | 31.3 | 34.3 | 37.4 | 40.4
